Source: article PMC4457802 (PLoS ONE, 2015)
Converted amounts (≈) assume the structure as drawn. Like-named read-outs stand apart in the source and are kept apart here. Positions of bridges follow the written chain, without caps; N, C: chain ends. Residues, ends and D or L forms follow the SMILES beside them.

Columns and labels:
[1] = tested on: Methicillin resistant S. aureus (MRSA); type: cell-based
Source text: (§1) Thirty (30) Pneumococcal clinical isolates were obtained from University of Malaya Medical Centre (UMMC). For broad-spectrum activity of AMPs, E. coli ATCC 25922, Staphylococcus aureus ATCC 25923, P. aeruginosa ATCC 15442, Acinetobacter baumanii ATCC 15308, and one clinical isolate of each methicillin resistant S. aureus (MRSA), […], citrobacter spp., and K. pneumoniae were used in this study.
(§2) The minimum inhibitory concentration (MIC) of the peptides against 30 pneumococcal isolates was determined by broth microdilution protocol as indicated by the CLSI guidelines (Clinical and Laboratory Standards Institute). Briefly, bacterial strains were grown for 18–24 hr at 37°C under 5% CO2. Direct suspension of the colonies were made in cationically-adjusted Müeller-Hinton broth (CAMHB) and adjusted to OD 625 0.08–0.1 which corresponds to 1 ~ 2 x10^8 CFU/ml followed by serial ten-fold dilutions to give 1x10^6 CFU/ml. 50μl of bacterial suspension were added to 96-well round bottom microtiter plates containing equal volume of peptides at different concentrations (1.95, 3.90, 7.81, 15.62, 31.25, 62.5, 125, 250μg/ml) and the 96-well plates were incubated for 20-24hr at 37°C in the presence of 5% CO2.

P. aeruginosa ATCC 15442 = type: cell-based
Source text: as §1, §2

E. coli ATCC 25922 = type: cell-based
Source text: as §1, §2

K. pneumoniae = type: cell-based
Source text: as §1, §2

[2] = tested on: Acinetobacter baumanii ATCC 15308; type: cell-based
Source text: as §1, §2

citrobacter spp = type: cell-based
Source text: as §1, §2

Enterococcus cloacae = type: cell-based
Source text: as §1, §2

[3] = tested on: S. pneumoniae (30 clinical isolates); type: cell-based, Streptococcus pneumoniae; details: for MIC S. pneumoniae (30 clinical isolates): broth microdilution, CAMHB, 20-24hr, 37°C, 5% CO2, lowest concentration that completely inhibits growth
Source text: as §1, §2

human erythrocytes = assay: Hemolytic activity assay; type: cell-based; details: 250μg/ml; 4% human RBCs in PBS, 1hr, 37°C, absorbance 560 nm, relative to 0.1% Triton X-100, triplicate
Experimental: The hemolytic activity of the peptides was tested using human erythrocytes as described previously. Human red blood cells (RBCs) were freshly collected from a healthy donor, washed three times using sterile phosphate buffered saline (PBS) and centrifuged at 2000 rpm for 10 min until the upper solution became clear. RBCs were diluted to a final concentration of 4%, and 100μl of peptides at different concentrations (1.95 to 250μg/ml) were mixed with equivalent volumes of erythrocyte suspensions. After 1hr of incubation at 37°C, the cells were centrifuged at 2000 rpm for 10 min and the absorbance of the supernatants was measured at 560 nm using GloMax Multi Detection System (Promega, USA). PBS and 0.1% Triton X-100 were used as negative and positive controls, respectively. The assay was done in triplicate, and percentage of hemolysis was calculated using the following formula: 100% hemolysis = 100 (Apeptide-APBS) / (Atriton-APBS). We obtained the blood from the Blood Bank of University […] Medical Centre and ethical clearance for this work was approved by the Scientific and Ethical Committee of UMMC (Ethics Committee/IRB Reference No: 321.4). Written informed consent was obtained for each collection.

E. coli = details: cited from earlier work
S. aureus ATCC 25923 = type: cell-based, Staphylococcus aureus
Source text: as §1, §2

S. aureus = details: cited from earlier work
[4] = tested on: NL-20 normal lung cell line; type: cell-based, human
Experimental: (§3) CellTiter 96 AQueous Non-Radioactive Cell Proliferation assay (Promega, USA) was used to evaluate the cytotoxic effects of peptides. WRL-68 (ATCC CL-48) and NL-20 (ATCC CRL2503) cell lines were purchased from American Type Culture Collection (ATCC, USA). The cell lines were grown in Dulbecco's modified Eagle's medium (DMEM) and Ham’s F-12 medium, respectively. Cells were supplemented with 10% (v/v) fetal bovine serum (FBS) in T75 flasks and incubated at 37°C in the presence of 5% CO2. Cells were seeded into 96-well plates at a density of 1×10^4 and 3×10^4 cells per well, respectively. Peptides were added to the wells at different concentrations (1.95, 3.90, 7.81, 15.62, 31.25, 62.5, 125, and 250μg) and plates were incubated at 37°C under 5% CO2 for 24, 48, and 72 hrs. Medium with and without cells was used as positive and negative controls, respectively. After incubation, 20μl of the reagent were added to each well and incubated for 1 hr at 37°C under 5% CO2. Metabolically active cells convert the yellow MTS to purple formazan, allowing for monitoring of the reaction. The absorbance was monitored at 490 nm using GloMax Multi Detection System (Promega, USA). The percentage of viable cells was calculated according to the following formula: 100 (AT-AB/AC-AB), where AT and AC are the absorbance of treated and control cells (100% survival). AB is the absorbance of medium alone. The assay was done in triplicate.

[5] = tested on: WRL-68 normal liver cell line; type: cell-based, human
Experimental: as §3

Streptococcus pneumoniae = assay: Time killing assay; type: cell-based; details: 1×MIC, MHB, 37°C, sampled every 30 min to 240 min, triplicate
Experimental: The bactericidal activities of peptides were performed as described previously. […] 10μl of bacterial suspensions were removed at various time intervals (30, 60, 90, 120, 150, 180, 210, and 240 min), serially diluted in PBS and plated onto Columbia agar with 5% sheep blood for 20-24hr at 37°C in the presence of 5% CO2 to obtain viable colonies. Erythromycin and ceftriaxone were used as positive control and the assay was performed in triplicate.

[6] = numbers in parentheses are micromolar concentrations, unit of the source corrected
[7] = numbers in parentheses are micromolar concentrations

| Compound | MIC MRSA, in parentheses [1, 6] [µg/mL] | MIC P. aeruginosa ATCC 15442, in parentheses (P. aeruginosa ATCC 15442; [6]) [µg/mL] | MIC E. coli ATCC 25922, in parentheses (E. coli ATCC 25922; [6]) [µg/mL] | MIC K. pneumoniae, in parentheses (K. pneumoniae; [7]) | MIC Acinetobacter baumanii ATCC 15308, in parentheses [2, 7] | MIC citrobacter spp, in parentheses (citrobacter spp; [7]) | MIC Enterococcus cloacae, in parentheses (Enterococcus cloacae; [7]) | MIC S. pneumoniae (30 clinical isolates), in parentheses [3, 6] [µg/mL] | concentration at which toxic, NL-20 [4] [µg/mL] | concentration at which toxic, WRL-68 [5] [µg/mL] | MIC S. pneumoniae (30 clinical isolates) [3] [µg/mL] | MIC S. aureus ATCC 25923, in parentheses (S. aureus ATCC 25923; [6]) [µg/mL] | time to completely kill 10^6 CFU/ml of S. pneumoniae (Streptococcus pneumoniae) [min] | also measured |
| --- | --- | --- | --- | --- | --- | --- | --- | --- | --- | --- | --- | --- | --- | --- |
| CC[C@H](C)[C@H](N)C(=O)N[C@@H](CC(C)C)C(=O)N1CCC[C@H]1C(=O)N[C@@H](Cc1c[nH]c2ccccc12)C(=O)N[C@@H](CCCCN)C(=O)N[C@@H](Cc1c[nH]c2ccccc12)C(=O)N1CCC[C@H]1C(=O)N[C@@H](Cc1c[nH]c2ccccc12)C(=O)N[C@@H](Cc1c[nH]c2ccccc12)C(=O)N1CCC[C@H]1C(=O)N[C@@H](Cc1c[nH]c2ccccc12)C(=O)N[C@@H](CCCNC(=N)N)C(=O)N[C@@H](CCCNC(=N)N)C(N)=O [Indolicidin, reference compound] | 31.2 (≈ 16.4 µM) | 31.2 (≈ 16.4 µM) | 31.2 (≈ 16.4 µM) | >250 (>131) micromolar | >250 (131) micromolar | >250 (>131) micromolar | >250 (>131) micromolar | 15.6 to 31.2 (≈ 8.19 to 16.4 µM) |  |  |  |  |  | hemolytic activity (human erythrocytes): 56.98% |
| CC[C@H](C)[C@H](NC(=O)[C@H](CCSC)NC(=O)[C@H](C)NC(=O)[C@@H]1CCCN1C(=O)[C@@H](NC(=O)[C@@H](NC(=O)[C@H](CCCCN)NC(=O)[C@@H](NC(=O)[C@H](CC(C)C)NC(=O)CNC(=O)CNC(=O)[C@H](CC(C)C)NC(=O)[C@@H](N)Cc1ccccc1)[C@@H](C)CC)[C@@H](C)CC)C(C)C)C(=O)N[C@H]1CSSC[C@@H](C(=O)O)NC(=O)[C@H](CCCCN)NC(=O)[C@H](CCCCN)NC(=O)[C@H]([C@@H](C)O)NC(=O)[C@H](C(C)C)NC(=O)[C@H](C)NC1=O [Ranalexin, reference compound] (H-FLGGLIKIVPAMICAVTKKC-OH; disulfide 14-20; N-terminus assumed) |  |  |  |  |  |  |  |  |  |  |  |  |  | MIC against E. coli (E. coli): 32 µg/mL (≈ 15.2 µM); MIC MRSA, in parentheses ([1]; Methicillin resistant): 31.2 µg/mL (≈ 14.9 µM); MIC P. aeruginosa ATCC 15442, in parentheses (P. aeruginosa ATCC 15442; ATCC 15442): 125 µg/mL (≈ 59.4 µM); MIC E. coli ATCC 25922, in parentheses (E. coli ATCC 25922; ATCC 25922): 62.5 µg/mL (≈ 29.7 µM); MIC K. pneumoniae, in parentheses (K. pneumoniae): >250 (>118) micromolar; MIC Acinetobacter baumanii ATCC 15308, in parentheses ([2]; ATCC 15308): >250 (>118) micromolar; MIC citrobacter spp, in parentheses (citrobacter spp): >250 (>118) micromolar; MIC Enterococcus cloacae, in parentheses (Enterococcus cloacae): >250 (>118) micromolar; MIC S. pneumoniae (30 clinical isolates), in parentheses ([3]; 30 clinical isolates): 62.5 µg/mL (≈ 29.7 µM); MIC S. aureus ATCC 25923, in parentheses (S. aureus ATCC 25923; ATCC 25923): 31.2 µg/mL (≈ 14.9 µM); MIC against S. aureus (S. aureus): 4 µg/mL (≈ 1.9 µM) |
| FLGGLIKWKWPWWPWRR-NH2 [RN7-IN10, hybrid peptide of ranalexin and indolicidin] | 7.81 | 31.2 | 7.81 | >250 (>108) micromolar | 31.25 (13.51) micromolar | >250 (>108) micromolar | >250 (>108) micromolar | 7.81 to 15.6 | ≥ 125 | ≥ 62.5 | 7.81 to 15.62 | 7.81 | 30 |  |
| FLGGLIKWPWWPWRR-NH2 [RN7-IN8, hybrid peptide of ranalexin and indolicidin] | 7.81 | 31.2 | 7.81 | >250 (>125) micromolar | 62.5 (31.3) micromolar | >250 (>125) micromolar | >250 (>125) micromolar | 7.81 to 15.6 | ≥ 125 | ≥ 62.5 | 7.81 to 15.62 | 7.81 | 120 |  |
| FLGGLIKWWPWRR-NH2 [RN7-IN6, hybrid peptide of ranalexin and indolicidin] | 7.81 | 31.2 | 7.81 | >250 (>145.84) micromolar | 31.25 (18.23) micromolar | >250 (>145.84) micromolar | >250 (>145.84) micromolar | 7.81 to 15.6 | ≥ 125 | ≥ 62.5 | 7.81 to 15.62 | 7.81 | 240 |  |
